Source: patent publication US6566120B2 (Massachusetts Institute of Technology, priority 1995, dated 2003)
Read-outs that look alike come from different tables or passages of the source.

What was measured:
Actinomadura hydroxylase [1] = test: Effect of various factors on conversion of compactin to pravastatin in cell free extracts of Actinomadura; type: biochemical, Actinomadura ATCC 55678; conditions: for CP: compactin remaining
strain 2966 = test: Antibiotic sensitivity of strain 2966 (taxonomic description); type: cell-based, Actinomadura
Excerpt: Description of strain 2966: Cell wall analysis: Whole cell hydrolysates contain meso-diaminopimelic acid (DAP) and madurose. Morphology: Strain 2966 produces an extensively branched, non-fragmenting and dense substrate mycelium. The aerial mycelium is very well developed on yeast malt extract agar, oatmeal agar, N-Z Amine with soluble starch and glucose agar and absent on ISP-4, ISP-5 and ISP-7 media. Spore chains noticeably exceed the diameter of the hyphae which is characteristic for Actinomadura strains and distinguish them from Streptomyces. The presence of meso-DAP is another distinguishing feature. Spores of strain 2966 have a round shape unlike glycomyces species. No special morphological structures were observed either on the substrate mycelium or aerial mycelium. The color of the aerial mycelium is white and yellow-brown for substrate mycelium. No soluble or melanin pigments are formed. Mycelium is not sensitive to pH changes. Carbon source utilization is very poor for glucose, arabinose, D-fructose, D-mannitol, raffinose, rhamnose, sucrose, xylose, galactose and there is only a trace of growth with i-inositol, salicin or on control agar. […] Of the meso-DAP-containing actinomycetes, only Actinomadura species have non-fragmenting mycelium and display the same type of aerial mycelium formation and sporulation as strain 2966.

fungi = conditions: Serizawa et al., J. Antibiotics 36:887-891 (1983); cited from earlier work
Actinomadura hydroxylase [2] = test: Conversion of compactin to pravastatin by cell free extracts of Actinomadura: NADH versus NADPH as H+ donor; type: biochemical, Actinomadura ATCC 55678; conditions: for PV: 160 μl cell free extract, 0.26 mM H+ donor, 0.23 mM compactin, 30° C.
Protocol: The HPLC conditions used were a 3 μm Lichrospher 100 RP-18 column (obtained from EM Separations Technology, Gibbstown, N.J.); Mobile Phase A: 2.5 g NaH2PO4 in 800 ml Milli-Q water, add 200 ml acetonitrile and 110 ml methanol, adjust pH to 2.5 with 85% H3PO4; Mobile Phase B: mixture of 200 ml water, 800 ml acetonitrile, 110 ml methanol and 1 ml 85% H3PO4; a 10 μl injection volume; a 1 ml/min. flow rate; and detection at UV 237 nm. The gradient table was: A cell free extract of Actinomadura was obtained by growing a 150 ml culture of Actinomadura ATCC 55678 for 2 days in YM medium as described in Example 1. The cells were harvested by centrifugation at 15,000 rpm for 30 min. […] Cells were harvested by centrifugation, washed twice with cold water and once with buffer A ([…] Tris-HCl buffer, pH 7.4, supplemented with 20% glycerol and 2 mM DTT). The cells were resuspended in 5 ml buffer A and stored at −80° C. The cell suspension was later thawed and disrupted in a French Press. The homogenate was centrifugated at 30,000 rpm for 60 min. The supernatant was stored at −80° C. as cell free extract. […] A control of buffer A without cell free extract was included. The amount of pravastatin was measured by HPLC as described in Example 1.

blood cholesterol level = test: Treating high blood cholesterol levels; type: in vivo; conditions: human patient; 20 mg orally, pill, twice a day, 3 months
Protocol: This example illustrates a method for lowering the cholesterol level in a human with pravastatin derived from an Actinomadura hydroxylase that converts compactin to pravastatin. The patient is given 20 mg of this pravastatin orally, in the form of a pill, twice a day. Administration is carried out for a period of 3 months.

[3] = target: T1, 3-hydroxy-3-methylglutaryl (HMG)-CoA reductase (Homo sapiens, UniProt P04035); conditions: have been reported; cited from earlier work
T1 sequence (P04035 1-888): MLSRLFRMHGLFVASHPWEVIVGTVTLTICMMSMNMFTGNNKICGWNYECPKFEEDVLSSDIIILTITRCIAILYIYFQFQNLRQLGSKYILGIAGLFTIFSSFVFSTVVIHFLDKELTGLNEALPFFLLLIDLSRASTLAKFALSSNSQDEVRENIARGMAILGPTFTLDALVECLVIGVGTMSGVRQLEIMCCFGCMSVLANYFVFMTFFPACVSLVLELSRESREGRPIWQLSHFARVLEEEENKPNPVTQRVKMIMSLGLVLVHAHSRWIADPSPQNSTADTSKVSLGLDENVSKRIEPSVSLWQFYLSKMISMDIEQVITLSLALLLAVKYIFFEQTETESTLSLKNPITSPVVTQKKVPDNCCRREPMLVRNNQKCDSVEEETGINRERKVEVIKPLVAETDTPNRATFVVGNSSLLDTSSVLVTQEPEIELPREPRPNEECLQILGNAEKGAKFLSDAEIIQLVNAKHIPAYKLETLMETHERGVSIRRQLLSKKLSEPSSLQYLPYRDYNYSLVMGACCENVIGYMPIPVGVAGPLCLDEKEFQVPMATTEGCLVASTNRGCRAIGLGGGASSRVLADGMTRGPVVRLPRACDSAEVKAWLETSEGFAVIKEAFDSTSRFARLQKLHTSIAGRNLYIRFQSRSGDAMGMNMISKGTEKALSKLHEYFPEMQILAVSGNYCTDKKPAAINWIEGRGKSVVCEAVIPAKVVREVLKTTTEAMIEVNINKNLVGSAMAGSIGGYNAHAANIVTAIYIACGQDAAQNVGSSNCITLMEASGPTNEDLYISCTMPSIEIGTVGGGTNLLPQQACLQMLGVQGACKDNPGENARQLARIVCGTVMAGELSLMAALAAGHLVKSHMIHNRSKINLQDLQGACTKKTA

[4] = Actinomadura cell free extracts, alone or in combination
[5] = Table 9, 60 min, 0.72 mM NADPH, 0.2 mM compactin, 2.4 mM MgCl2, 0.09 mM FeSO4, 0.1 mM FeCl3, 1.9 mM ATP and 12 mM ascorbic acid
[6] = Table 9, 60 min, 0.72 mM NADPH, 0.2 mM compactin, same factor concentrations
[7] = Table 10, CFE Uninduced, combination MgCl2 2.4 mM, ATP 1.9 mM, ascb 12 mM, ATP alone 3.8 mM, ascb alone 23 mM

Question: For `[Cl][Ni][Cl]` [NiCl2], which “stimulation of the enzymatic activity of the agent (conversion of compactin to pravastatin)” value (“stimulation” below) (Actinomadura hydroxylase [1]; [4]) is on record?
Answer: do not stimulate enzymatic activity

Question: For `O=S(=O)([O-])[O-].[Fe+2]` [FeSO4], which “PV (μg/ml)” value (Actinomadura hydroxylase [1]; [5]) is on record?
Answer: 2.3 µg/mL

Question: What about the “PV (μg/min/g)” value (Actinomadura hydroxylase [1]; [6]) of the same molecule?
Answer: 6.4 µg/min/g

Question: What about the “CP” value (Actinomadura hydroxylase [1]; [6]) of the same molecule?
Answer: 64.3 µg/mL

Question: Which “sensitivity of strain 2966 to antibiotic” value (strain 2966) does the source give for penicillin here?
Answer: resistance

Question: Which “stimulation” value (Actinomadura hydroxylase [1]; [4]) does the source give for `O=C1O[C@H]([C@@H](O)CO)C(O)=C1O` [ascb, ascorbic acid] here?
Answer: stimulate conversion of compactin to pravastatin

Question: What about the “PV (μg/min/g)” value (Actinomadura hydroxylase [1]; [7]) of the same molecule?
Answer: 18 µg/min/g

Question: What about the “PV (μg/ml)” value (Actinomadura hydroxylase [1]; [7]) of the same molecule?
Answer: 8.3 µg/mL

Question: For `Cc1cc2nc3c(=O)[nH]c(=O)nc-3n(C[C@H](O)[C@H](O)[C@H](O)COP(=O)(O)O)c2cc1C` [FMN], which “stimulation” value (Actinomadura hydroxylase [1]) is on record?
Answer: do not stimulate enzymatic activity

Question: For compactin, which activity against fungi (fungi) is on record?
Answer: anti-fungal activity

Question: Which results are given for `[Cl][Fe]([Cl])[Cl]` [FeCl3]?
Answer: PV (μg/ml) (Actinomadura hydroxylase [1]; [5]): 3.3 µg/mL; PV (μg/min/g) (Actinomadura hydroxylase [1]; [6]): 6.6 µg/min/g; CP (Actinomadura hydroxylase [1]; [6]): 57.9 µg/mL

Question: Which results are given for `Nc1ncnc2c1ncn2[C@@H]1O[C@H](COP(=O)(O)OP(=O)(O)OP(=O)(O)O)[C@@H](O)[C@H]1O` [ATP]?
Answer: stimulation of the enzymatic activity of the agent (conversion of compactin to pravastatin) (Actinomadura hydroxylase [1]; [4]): stimulate conversion of compactin to pravastatin; PV (μg/min/g) (Actinomadura hydroxylase [1]; [7]): 17 µg/min/g; PV (μg/ml) (Actinomadura hydroxylase [1]; [7]): 7.5 µg/mL

Question: For `[Cl-].[Cl-].[Mg+2]` [MgCl2], which “stimulation” value (Actinomadura hydroxylase [1]; [4]) is on record?
Answer: stimulate conversion of compactin to pravastatin

Question: And the “PV (μg/ml)” value (Actinomadura hydroxylase [1]; [5])?
Answer: 4.4 µg/mL

Question: And the “PV (μg/min/g)” value (Actinomadura hydroxylase [1]; [6])?
Answer: 8.7 µg/min/g

Question: And the “CP” value (Actinomadura hydroxylase [1]; [6])?
Answer: 60.2 µg/mL

Question: Which “PV” value (Actinomadura hydroxylase [2]; 5 hours) does the source give for `NC(=O)C1=CN([C@@H]2O[C@H](COP(=O)(O)OP(=O)(O)OC[C@H]3O[C@@H](n4cnc5c(N)ncnc54)[C@H](O)[C@@H]3O)[C@@H](O)[C@H]2O)C=CC1` [NADH] here?
Answer: 2.8 µg/mL

Question: What about the “PV” value (Actinomadura hydroxylase [2]; 21 hours) of the same molecule?
Answer: 2.8 µg/mL

Question: Which “stimulation” value (Actinomadura hydroxylase [1]; [4]) does the source give for `O=S(=O)([O-])[O-].[Cu+2]` [CuSo4] here?
Answer: do not stimulate enzymatic activity

Question: What does the source list for `NC(=O)C1=CN([C@@H]2O[C@H](COP(=O)(O)OP(=O)(O)OC[C@H]3O[C@@H](n4cnc5c(N)ncnc54)[C@H](OP(=O)(O)O)[C@@H]3O)[C@@H](O)[C@H]2O)C=CC1` [NADPH]?
Answer: PV (Actinomadura hydroxylase [2]; 6 hours): 12.8 µg/mL; PV (Actinomadura hydroxylase [2]; 21 hours): 11.9 µg/mL; enzymatic conversion of compactin to pravastatin, comparison of H+ donors (Actinomadura hydroxylase [2]; cell free extracts): better with NADPH as a H^+ donor than with NADH

Question: For neomycin, which “sensitivity of strain 2966 to antibiotic” value (strain 2966) is on record?
Answer: inhibited

Question: Which “stimulation” value (Actinomadura hydroxylase [1]; [4]) does the source give for `O=C(O)CCC(=O)C(=O)O` [∝-ketoglutarate] here?
Answer: do not stimulate enzymatic activity

Question: For `[Cl-].[Cl-].[Co+2]` [CoCl2], which “stimulation” value (Actinomadura hydroxylase [1]) is on record?
Answer: do not stimulate enzymatic activity

Question: Which “stimulation” value (Actinomadura hydroxylase [1]) does the source give for `Cc1cc2nc3c(=O)[nH]c(=O)nc-3n(C[C@H](O)[C@H](O)[C@H](O)COP(=O)(O)OP(=O)(O)OC[C@H]3O[C@@H](n4cnc5c(N)ncnc54)[C@H](O)[C@@H]3O)c2cc1C` [FAD] here?
Answer: do not stimulate enzymatic activity

Question: For `CC[C@H](C)C(=O)O[C@H]1C[C@H](O)C=C2C=C[C@H](C)[C@H](CC[C@@H](O)C[C@@H](O)CC(=O)O)[C@H]21` [pravastatin], which blood cholesterol level (blood cholesterol level) is on record?
Answer: reduction of the patient's blood cholesterol level

Question: What about the “inhibition of HMG-CoA reductase” value [3] of the same molecule?
Answer: competitive inhibitors
